Data as given in publication PMC10907609, “Structural and functional characterization of the endogenous agonist for orphan receptor GPR3” (Cell Research, 2024).

Key:
GPR3 [1] = biological target: T1, GPR3 (Homo sapiens, UniProt P46089); test: cryo-EM structure ([…] Å), SPR, MS of co-purified ligand; GTP turnover on purified complex; EC50 from cell-based cAMP Glo-Sensor assay; parameters: GPR3–Gs–scFv16 complex; with Gs heterotrimer (scFv16-stabilised)
Target sequence in this assay (P46089 whole entry): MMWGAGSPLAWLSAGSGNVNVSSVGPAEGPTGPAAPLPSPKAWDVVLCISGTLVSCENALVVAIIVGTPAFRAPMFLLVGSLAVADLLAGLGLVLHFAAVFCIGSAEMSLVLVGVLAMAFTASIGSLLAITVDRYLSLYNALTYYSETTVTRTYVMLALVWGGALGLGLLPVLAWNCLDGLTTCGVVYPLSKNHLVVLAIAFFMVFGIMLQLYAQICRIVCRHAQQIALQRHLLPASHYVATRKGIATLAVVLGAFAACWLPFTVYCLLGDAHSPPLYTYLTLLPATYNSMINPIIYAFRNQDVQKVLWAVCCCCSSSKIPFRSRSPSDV
Target sequence in this assay (P63092 2-394 partner): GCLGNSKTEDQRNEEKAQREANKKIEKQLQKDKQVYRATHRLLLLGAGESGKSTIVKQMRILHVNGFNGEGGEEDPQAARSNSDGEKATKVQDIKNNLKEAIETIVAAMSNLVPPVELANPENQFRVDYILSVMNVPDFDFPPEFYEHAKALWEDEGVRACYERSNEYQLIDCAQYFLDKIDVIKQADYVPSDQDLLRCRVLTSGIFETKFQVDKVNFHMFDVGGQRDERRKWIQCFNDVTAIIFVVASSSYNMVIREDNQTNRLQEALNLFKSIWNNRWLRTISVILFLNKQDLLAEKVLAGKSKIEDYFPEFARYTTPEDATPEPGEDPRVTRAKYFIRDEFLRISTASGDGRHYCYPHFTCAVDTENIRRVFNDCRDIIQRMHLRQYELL
Target sequence in this assay (P62873 2-340 partner): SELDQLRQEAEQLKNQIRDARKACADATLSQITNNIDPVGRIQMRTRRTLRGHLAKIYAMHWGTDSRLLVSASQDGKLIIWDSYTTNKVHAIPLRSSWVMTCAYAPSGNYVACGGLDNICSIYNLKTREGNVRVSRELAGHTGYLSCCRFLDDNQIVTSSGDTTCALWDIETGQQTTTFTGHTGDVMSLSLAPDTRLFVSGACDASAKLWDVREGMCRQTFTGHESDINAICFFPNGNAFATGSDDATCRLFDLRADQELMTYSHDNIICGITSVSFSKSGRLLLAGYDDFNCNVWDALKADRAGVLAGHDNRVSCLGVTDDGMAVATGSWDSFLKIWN
Target sequence in this assay (P59768 2-68 partner): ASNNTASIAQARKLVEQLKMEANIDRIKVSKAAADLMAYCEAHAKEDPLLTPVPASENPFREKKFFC

GPR3 [2] = biological target: T1, GPR3; test: cell-based cAMP Glo-Sensor assay (no significant activity in purified GTP turnover assay)
Target sequence in this assay (P46089 whole entry): as the sequence (P46089 whole entry) above

Q: How did the EC50 (GPR3 [1]) turn out when `CCCCCCCC/C=C\CCCCCCCC(=O)NCCO` [OEA, oleoylethanolamide] was run?
A: 2500 nM

Q: For `CCCCCCCC/C=C\CCCCCCCC(N)=O` [oleamide], which EC50 (GPR3 [2]) is on record?
A: 5.6 µM
